Test results taken from US20140348857A1, “METHODS OF DIAGNOSIS AND TREATMENT OF ENDOPLASMIC RETICULUM (ER) STRESS-RELATED CONDITIONS” (MASSACHUSETTS INSTITUTE OF TECHNOLOGY, priority 2011, published 2014).
Where a SMILES comes first, the peptide text is derived from it. The star is where a group is joined. Cbz = O=C(OCc1ccccc1)*

Columns and labels:
[1] = tested on: PERK; assay: PERK and eIF2α phosphorylation immunoblot in HeLa cells; type: cell-based, human; settings: control HeLa cells; Brefeldin A 5 μg/ml, Tunicamycin 3 μg/ml
Source text: To determine the effects of (ADP-ribosyl)ation on PERK and IRE1α signaling, GFP-PARP-16, GFP-PARP-16^H152Q Y182A, or GFP alone were over-expressed at similar concentrations, and PERK and IRE1α activation examined using two standard assays; (i) detection of PERK phosphorylation at Thr 981 and phosphorylation of its substrate eIF2α at Ser 51 using phospho-specific antibodies, and (ii) monitoring splicing of the IRE1α substrate XBP-1 mRNA.
To determine if PARP-16 is required for PERK or IRE1α activation, we compared activation in PARP-16 knock-downs to controls. […] Since PERK and IRE1α activity result in the time-dependent activation of downstream transcriptional programs regulated by ATF4 and spliced XBP-1, respectively, we analyzed PERK and IRE1α signaling every 4 hours over a 12-hour period in PARP-16 knock-downs and controls treated with Tunicamycin. Components of each pathway were analyzed via immunoblot or RT-qPCR analysis. While IRE1α activation, detected by phosphorylation of IRE1α, occurred 4 hours post-treatment in controls, such phosphorylation was barely detectable in PARP-16 knock-downs at any time (FIG. 7C, left). […]
Immunofluorescence analysis was performed as described in Leung et al., Mol. Cell 42: 489-499, 2011. […] Fluorescence, biochemical protease protection assays and membrane extraction assays were performed as described in Schreiber et al., Nat. […]

[2] = tested on: ERAD machinery; assay: ERAD activity assay, CD3δ-YFP clearance by cycloheximide chase; type: cell-based, human; settings: MG132 10 μM
Source text: While our data strongly point to direct effects of PARP-16 on PERK and IRE1α signaling, compromised ERAD (ER-associated degradation) and/or chaperone capacities of the ER in PARP-16 knock-downs could also affect UPR activation. ERAD activity in PARP-16 knock-downs was examined by measuring clearance of CD3δ-YFP, a model substrate of ERAD machinery. CD3δ-YFP degradation kinetics were similar in PARP-16 knock-downs and controls as assayed by cycloheximide chase. […] The protein-folding capacity of the ER in PARP-16 knock-downs appear to be similar to controls as the protein concentrations of ER chaperones BiP and Calnexin, and disulfide isomerases PDI and ERp57, were similar (FIG. 9C).
ROS was evaluated using a cell permeant […] derivative of fluorescein (CM-H2DCFDA, Invitrogen), following the manufacturer's protocol (Invitrogen). […] The fluorescence intensity of oxidized ROS probe was measured using a microplate reader (Tecan). […] The ratiometric fluorescence at 340 nm/380 nm was measured every 2 min for 20 min, using a microplate reader (Tecan). […] Total RNA was extracted using RNeasy kits and QIAshredder (Qiagen), and cDNA was amplified using Quantitect reverse transcription kit (Qiagen). RT-qPCR was performed with Quantitect SYBR Green PCR kit (Qiagen), using a LightCycler 480 (Roche). mRNA levels were normalized against GAPDH mRNA.

Row | Compound | phosphorylation of PERK and eIF2α [1] | CD3δ-YFP degradation [2]
1 | C[C@H]1CCC/C=C/[C@@H]2C[C@H](O)C[C@H]2[C@H](O)/C=C/C(=O)O1 [Brefeldin A] | robust phosphorylation of PERK and eIF2α | 
2 | CC(C)C[C@@H](C=O)NC(=O)[C@H](CC(C)C)NC(=O)[C@H](CC(C)C)NC(=O)OCc1ccccc1 [MG132] (Cbz-Leu-Leu-Leu-aldehyde) |  | rescued degradation
3 | Tunicamycin | robust phosphorylation of PERK and eIF2α | 
